# Assay results published in ChEMBL document CHEMBL5126624, “Targeted Isolation of Anti-inflammatory Lignans from Justicia aequilabris by Molecular Networking Approach” (J Nat Prod, 2022).
# Columns and labels:
# RAW264.7 [1] = test: Antiinflammatory activity in mouse RAW264.7 cells assessed as decrease in IFN-gamma and LPS-induced nitric oxide production after 24 hrs by ELISA; type: functional, cell-based; conditions: RAW264.7, 24 h
# [2] = Cytotoxicity in LPS-stimulated mouse RAW264.7 cells assessed as reduction in cell viability incubated for […] by alamar blue dye based colorimetric assay; type: toxicity; conditions: LPS-stimulated RAW264.7 cells
# RAW264.7 [3] = test: Antiinflammatory activity in mouse RAW264.7 cells assessed as decrease in IFN-gamma and LPS-induced IL-1beta production at 6.7 uM after 24 hrs by ELISA; type: functional
# RAW264.7 [4] = test: Antiinflammatory activity in mouse RAW264.7 cells assessed as decrease in IFN-gamma and LPS-induced IL-1beta production by measuring IL-1beta level at 16.7 uM after 24 hrs by ELISA (reference value: 73.3 +/- 1.8 pg/mg); type: functional
# RAW264.7 [5] = test: Antiinflammatory activity in mouse RAW264.7 cells assessed as decrease in IFN-gamma and LPS-induced IL-1beta production by measuring IL-1beta level at 8.4 uM after 24 hrs by ELISA (reference value: 73.3 +/- 1.8 pg/mg); type: functional
# RAW264.7 [6] = test: Antiinflammatory activity in mouse RAW264.7 cells assessed as decrease in IFN-gamma and LPS-induced IL-1beta production by measuring IL-1beta level at 4.2 uM after 24 hrs by ELISA (reference value: 73.3 +/- 1.8 pg/mg); type: functional
# RAW264.7 [7] = test: Antiinflammatory activity in mouse RAW264.7 cells assessed as decrease in IFN-gamma and LPS-induced IL-1beta production by measuring IL-1beta level at 2.1 uM after 24 hrs by ELISA (reference value: 73.3 +/- 1.8 pg/mg); type: functional
# RAW264.7 [8] = test: Antiinflammatory activity in mouse RAW264.7 cells assessed as decrease in IFN-gamma and LPS-induced IL-1beta production by measuring IL-1beta level at 50 uM after 24 hrs by ELISA (reference value: 73.3 +/- 1.8 pg/mg); type: functional
# RAW264.7 [9] = test: Antiinflammatory activity in mouse RAW264.7 cells assessed as decrease in IFN-gamma and LPS-induced IL-1beta production by measuring IL-1beta level at 25 uM after 24 hrs by ELISA (reference value: 73.3 +/- 1.8 pg/mg); type: functional
# RAW264.7 [10] = test: Antiinflammatory activity in mouse RAW264.7 cells assessed as decrease in IFN-gamma and LPS-induced IL-1beta production by measuring IL-1beta level at 12.5 uM after 24 hrs by ELISA (reference value: 73.3 +/- 1.8 pg/mg); type: functional
# RAW264.7 [11] = test: Antiinflammatory activity in mouse RAW264.7 cells assessed as decrease in IFN-gamma and LPS-induced IL-1beta production by measuring IL-1beta level at 6.3 uM after 24 hrs by ELISA (reference value: 73.3 +/- 1.8 pg/mg); type: functional
# RAW264.7 [12] = test: Antiinflammatory activity in mouse RAW264.7 cells assessed as decrease in IFN-gamma and LPS-induced IL-1beta production at 50 uM after 24 hrs by ELISA; type: functional
# RAW264.7 [13] = test: Antiinflammatory activity in mouse RAW264.7 cells assessed as decrease in IFN-gamma and LPS-induced IL-1beta production by measuring IL-1beta level at 10 uM after 24 hrs by ELISA (reference value: 73.3 +/- 1.8 pg/mg); type: functional
# RAW264.7 [14] = test: Antiinflammatory activity in mouse RAW264.7 cells assessed as decrease in IFN-gamma and LPS-induced IL-1beta production at 25 uM after 24 hrs by ELISA; type: functional
# RAW264.7 [15] = test: Antiinflammatory activity in mouse RAW264.7 cells assessed as decrease in IFN-gamma and LPS-induced IL-1beta production by measuring IL-1beta level at 3.1 uM after 24 hrs by ELISA (reference value: 73.3 +/- 1.8 pg/mg); type: functional
# RAW264.7 [16] = test: Antiinflammatory activity in mouse RAW264.7 cells assessed as maximum decrease in IFN-gamma and LPS-induced IL-1beta production after 24 hrs by ELISA; type: functional
SMILES,IC50 (RAW264.7 [1]),CC50 at 24 h [2],Activity (RAW264.7 [4]),Activity (RAW264.7 [5]),Activity (RAW264.7 [6]),Activity (RAW264.7 [7]),Activity (RAW264.7 [9]),Activity (RAW264.7 [10]),Activity (RAW264.7 [11]),further results
CN(C)c1ccc(C(=C2C=CC(=[N+](C)C)C=C2)c2ccc(N(C)C)cc2)cc1 [GENTIAN VIOLET],1.1 µM,–,–,–,–,–,–,–,–,–
C/C=C/C(=O)OC[C@H](Cc1ccc(O)c(OC)c1)[C@H](CO)Cc1ccc(O)c(OC)c1,92 µM,7.3 µM,49.4 pg/mg,65.7 pg/mg,69.8 pg/mg,74.1 pg/mg,–,–,–,Imax (RAW264.7 [3]): 32.5%
COc1cc(C[C@H]2COC(=O)[C@@H](C(=O)O)[C@@H](C)[C@@H](C(=O)O)C(=O)OC[C@@H]2Cc2ccc(O)c(OC)c2)ccc1O,> 200 µM,23.4 µM,–,–,–,–,70.2 pg/mg,71.3 pg/mg,73.3 pg/mg,Activity (RAW264.7 [8]): 56 pg/mg; Imax (RAW264.7 [12]): 23.5%
C[C@@H]1C[C@H]2[C@@H]3CCC4=CC(=O)C=C[C@]4(C)[C@@]3(F)[C@@H](O)C[C@]2(C)[C@@]1(O)C(=O)CO [DEXAMETHASONE],–,4.4 µM,–,–,–,–,–,–,–,Imax (RAW264.7 [13]): 47.9%
COc1cc(C[C@@H](CO)[C@H](COC(=O)CC(=O)O)Cc2ccc(O)c(OC)c2)ccc1O,173 µM,9.1 µM,–,–,–,–,53.3 pg/mg,66 pg/mg,71.1 pg/mg,Imax (RAW264.7 [14]): 27.3%; Activity (RAW264.7 [15]): 73.1 pg/mg
COc1cc(C[C@@H](CO)[C@H](CO)Cc2ccc(O)c(OC)c2)ccc1O [(+)-SECOISOLARICIRESINOL],132 µM,–,73 pg/mg,72.8 pg/mg,73 pg/mg,74.9 pg/mg,–,–,–,Imax (RAW264.7 [16]): 0%
